“And” between values parts separate entries of the source, which are not always exact repeats. Equal values may be shown once. Toxic doses and inconclusive results are not listed. Cut-off read from the data, not from the text of the source: active = T/C of 150% or more; inactive = T/C below 125%.
Test system: L1210 leukemia ip in BDF1 mice, survival T/C
Test: NCI In Vivo Anticancer Drug Screen. Data for tumor model L1210 Leukemia (intraperitoneal) in B6D2F1 (BDF1) mice
Conditions: endpoint: mean survival time, higher = longer survival
Procedure, shortened: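 Transplantable tumor model; survival measured in treated vs vehicle control mice. Value = treated/control.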

[1] = dose: 100.0 mg/kg/injection, schedule: Q01DX001 (ip), vehicle: Klucel (hydroxypropylcellulose) (HPC)
[2] = dose: 200.0 mg/kg/injection, schedule: Q01DX001 (ip), vehicle: Klucel (hydroxypropylcellulose) (HPC)
[3] = dose: 400.0 mg/kg/injection, schedule: Q01DX001 (ip), vehicle: Klucel (hydroxypropylcellulose) (HPC)
[4] = dose: 100.0 mg/kg/injection, schedule: Q01DX001 (ip), vehicle: saline
[5] = dose: 200.0 mg/kg/injection, schedule: Q01DX001 (ip), vehicle: saline
[6] = dose: 100.0 mg/kg/injection, schedule: Q01DX009 (ip), vehicle: Klucel (hydroxypropylcellulose) (HPC)
[7] = dose: 100.0 mg/kg/injection, schedule: Q04DX003 (ip), vehicle: Klucel (hydroxypropylcellulose) (HPC)
[8] = dose: 200.0 mg/kg/injection, schedule: Q01DX009 (ip), vehicle: Klucel (hydroxypropylcellulose) (HPC)
[9] = dose: 400.0 mg/kg/injection, schedule: Q01DX009 (ip), vehicle: Klucel (hydroxypropylcellulose) (HPC)
[10] = dose: 100.0 mg/kg/injection, schedule: Q01DX009 (ip), vehicle: saline with Tween-80
[11] = dose: 200.0 mg/kg/injection, schedule: Q01DX009 (ip), vehicle: saline with Tween-80
[12] = dose: 50.0 mg/kg/injection, schedule: Q04DX003 (ip), vehicle: saline with Tween-80
[13] = dose: 200.0 mg/kg/injection, schedule: Q04DX003 (ip), vehicle: saline with Tween-80

Measured: T/C

Cc1c2cnccc2c(C)c2c1c1ccccc1n2CC1CO1 (centres undefined)
inactive: dose: 0.78 mg/kg/injection, schedule: Q01DX009 (ip), vehicle: Klucel (hydroxypropylcellulose) (HPC) 90 % of control | dose: 1.56 mg/kg/injection, schedule: Q01DX009 (ip), vehicle: Klucel (hydroxypropylcellulose) (HPC) 97 % of control | dose: 1.56 mg/kg/injection, schedule: Q01DX009 (ip), vehicle: saline with Tween-80 113 % of control | dose: 3.12 mg/kg/injection, schedule: Q01DX009 (ip), vehicle: Klucel (hydroxypropylcellulose) (HPC) 100 % of control | dose: 3.13 mg/kg/injection, schedule: Q01DX009 (ip), vehicle: saline with Tween-80 110 % of control | dose: 4.12 mg/kg/injection, schedule: Q01DX009 (ip), vehicle: Klucel (hydroxypropylcellulose) (HPC) 120 % of control | dose: 6.25 mg/kg/injection, schedule: Q01DX009 (ip), vehicle: Klucel (hydroxypropylcellulose) (HPC) 94 % of control and 122 % of control | dose: 6.25 mg/kg/injection, schedule: Q01DX009 (ip), vehicle: saline with Tween-80 113 % of control | dose: 6.25 mg/kg/injection, schedule: Q04DX003 (ip), vehicle: saline 110 % of control | dose: 12.5 mg/kg/injection, schedule: Q01DX009 (ip), vehicle: Klucel (hydroxypropylcellulose) (HPC) 113 % of control | dose: 12.5 mg/kg/injection, schedule: Q01DX009 (ip), vehicle: saline with Tween-80 120 % of control | dose: 25.0 mg/kg/injection, schedule: Q01DX009 (ip), vehicle: Klucel (hydroxypropylcellulose) (HPC) 119 % of control and 86 % of control | dose: 25.0 mg/kg/injection, schedule: Q04DX003 (ip), vehicle: saline 123 % of control | dose: 65.0 mg/kg/injection, schedule: Q04DX003 (ip), vehicle: saline 108 % of control and 117 % of control | dose: 100.0 mg/kg/injection, schedule: Q04DX003 (ip), vehicle: saline 104 % of control and 114 % of control | dose: 150.0 mg/kg/injection, schedule: Q04DX003 (ip), vehicle: saline 108 % of control

O=C(O)C1C2C=CC(C2)C1C(F)(F)C(F)(F)C(F)(F)F (centres undefined)
inactive: [1] 102 % of control | [2] 102 % of control | [3] 93 % of control

C=CCN(CC=C)C(=S)Nc1cccc(Cl)c1
inactive: dose: 100.0 mg/kg/injection, schedule: Q01DX001 (ip), vehicle: other 103 % of control | dose: 200.0 mg/kg/injection, schedule: Q01DX001 (ip), vehicle: other 100 % of control | dose: 400.0 mg/kg/injection, schedule: Q01DX001 (ip), vehicle: other 100 % of control

CC(=O)C(Cl)C(C)=O.CC(=O)C(Cl)C(C)=O.CO.CO.[Ni]
inactive: dose: 12.0 mg/kg/injection, schedule: Q01DX009 (ip), vehicle: other 91 % of control | dose: 25.0 mg/kg/injection, schedule: Q01DX009 (ip), vehicle: other 93 % of control | [4] 112 % of control | [5] 89 % of control

CC(CCl)=C(B1OC(C)(C)C(C)(C)O1)B1OC(C)(C)C(C)(C)O1
inactive: [1] 110 % of control | [2] 94 % of control | [3] 92 % of control

CC(C)CC(N)C(=O)CCl (centres undefined)
inactive: dose: 25.0 mg/kg/injection, schedule: Q04DX002 (ip), vehicle: Klucel (hydroxypropylcellulose) (HPC) 108 % of control | dose: 50.0 mg/kg/injection, schedule: Q04DX002 (ip), vehicle: Klucel (hydroxypropylcellulose) (HPC) 102 % of control

CCn1ncc2ccccc2c1=O
inactive: [4] 96 % of control | [5] 97 % of control

CC(CNC1CCCCC1)OC(=O)c1ccc(N)cc1 (centres undefined)
inactive: dose: 75.0 mg/kg/injection, schedule: Q01DX001 (ip), vehicle: saline 100 % of control

O=C(c1ccc(Cl)cc1)C1Cc2ccccc2C1=O (centres undefined)
inactive: [6] 97 % of control | [7] 101 % of control | [8] 94 % of control | dose: 200.0 mg/kg/injection, schedule: Q04DX003 (ip), vehicle: Klucel (hydroxypropylcellulose) (HPC) 101 % of control | [9] 91 % of control | dose: 400.0 mg/kg/injection, schedule: Q04DX003 (ip), vehicle: Klucel (hydroxypropylcellulose) (HPC) 97 % of control

Cc1cc([N+](=O)[O-])cc(C)c1N
inactive: dose: 50.0 mg/kg/injection, schedule: Q01DX001 (ip), vehicle: carboxymethylcellulose (CMC) 100 % of control | dose: 100.0 mg/kg/injection, schedule: Q01DX001 (ip), vehicle: carboxymethylcellulose (CMC) 102 % of control | dose: 200.0 mg/kg/injection, schedule: Q01DX001 (ip), vehicle: carboxymethylcellulose (CMC) 100 % of control | dose: 400.0 mg/kg/injection, schedule: Q01DX001 (ip), vehicle: carboxymethylcellulose (CMC) 110 % of control

OCCN1CCSC1=S
inactive: [10] 87 % of control | [11] 88 % of control

CCOc1ccccc1/C=C1N=C(/C=C/c2ccccc2)OC\1=O
inactive: dose: 100.0 mg/kg/injection, schedule: Q04DX002 (ip), vehicle: saline with Tween-80 92 % of control | dose: 200.0 mg/kg/injection, schedule: Q04DX002 (ip), vehicle: saline with Tween-80 89 % of control | dose: 400.0 mg/kg/injection, schedule: Q04DX002 (ip), vehicle: saline with Tween-80 97 % of control

COC(=O)C(=O)c1ccccc1
inactive: [10] 101 % of control | [11] 100 % of control | dose: 400.0 mg/kg/injection, schedule: Q01DX009 (ip), vehicle: saline with Tween-80 89 % of control

CCCCCCCCCCCc1cc(=O)n(-c2ccccc2)n1C
inactive: dose: 12.5 mg/kg/injection, schedule: Q04DX003 (ip), vehicle: saline with Tween-80 92 % of control | dose: 25.0 mg/kg/injection, schedule: Q04DX003 (ip), vehicle: saline with Tween-80 98 % of control | [12] 95 % of control | [13] 102 % of control

NC(N)=N/N=C/c1ccc(F)cc1
inactive: dose: 15.0 mg/kg/injection, schedule: Q01DX Z (ip), vehicle: carboxymethylcellulose (CMC) 95 % of control | dose: 30.0 mg/kg/injection, schedule: Q01DX Z (ip), vehicle: carboxymethylcellulose (CMC) 101 % of control | dose: 60.0 mg/kg/injection, schedule: Q01DX Z (ip), vehicle: carboxymethylcellulose (CMC) 100 % of control and 109 % of control | dose: 120.0 mg/kg/injection, schedule: Q01DX Z (ip), vehicle: carboxymethylcellulose (CMC) 97 % of control

CC1CCC(C(C)C)C(NCc2ccccc2O)C1 (centres undefined)
inactive: [7] 89 % of control

CCOC(=O)C(C)(C)Oc1ccc(O)cc1
inactive: dose: 100.0 mg/kg/injection, schedule: Q01DX001 (ip), vehicle: saline with Tween-80 105 % of control | dose: 200.0 mg/kg/injection, schedule: Q01DX001 (ip), vehicle: saline with Tween-80 105 % of control | dose: 400.0 mg/kg/injection, schedule: Q01DX001 (ip), vehicle: saline with Tween-80 97 % of control

N#Cc1cccc(OCCCCOc2ccccc2)c1
inactive: [6] 89 % of control | [8] 109 % of control | [9] 95 % of control

CCCCOC(=O)c1cccnc1
inactive: [12] 97 % of control | dose: 100.0 mg/kg/injection, schedule: Q04DX003 (ip), vehicle: saline with Tween-80 94 % of control and 102 % of control | [13] 103 % of control | dose: 400.0 mg/kg/injection, schedule: Q04DX003 (ip), vehicle: saline with Tween-80 91 % of control

CC(C(O)c1ccc2cc(Br)c3ccccc3c2c1)N(C)C (centres undefined)
inactive: dose: 55.0 mg/kg/injection, schedule: Q01DX Z (ip), vehicle: methylcellulose (MC) 101 % of control | dose: 83.0 mg/kg/injection, schedule: Q01DX Z (ip), vehicle: methylcellulose (MC) 101 % of control | dose: 125.0 mg/kg/injection, schedule: Q01DX Z (ip), vehicle: methylcellulose (MC) 101 % of control

From PubChem BioAssay AID248 (DTP/NCI, 2004)
